Results as given in patent US9708331B2, “Metabotrophic glutamate receptor 5 modulators and methods of use thereof” (SUNOVION PHARMACEUTICALS INC., priority 2011, dated 2017).

Target: mGluR5 (Homo sapiens, UniProt P41594)
Assay: mGluR5 PAM EC50 (positive allosteric modulator potency)
Assay type: cell-based

Chain of mGluR5 (P41594 21-1212): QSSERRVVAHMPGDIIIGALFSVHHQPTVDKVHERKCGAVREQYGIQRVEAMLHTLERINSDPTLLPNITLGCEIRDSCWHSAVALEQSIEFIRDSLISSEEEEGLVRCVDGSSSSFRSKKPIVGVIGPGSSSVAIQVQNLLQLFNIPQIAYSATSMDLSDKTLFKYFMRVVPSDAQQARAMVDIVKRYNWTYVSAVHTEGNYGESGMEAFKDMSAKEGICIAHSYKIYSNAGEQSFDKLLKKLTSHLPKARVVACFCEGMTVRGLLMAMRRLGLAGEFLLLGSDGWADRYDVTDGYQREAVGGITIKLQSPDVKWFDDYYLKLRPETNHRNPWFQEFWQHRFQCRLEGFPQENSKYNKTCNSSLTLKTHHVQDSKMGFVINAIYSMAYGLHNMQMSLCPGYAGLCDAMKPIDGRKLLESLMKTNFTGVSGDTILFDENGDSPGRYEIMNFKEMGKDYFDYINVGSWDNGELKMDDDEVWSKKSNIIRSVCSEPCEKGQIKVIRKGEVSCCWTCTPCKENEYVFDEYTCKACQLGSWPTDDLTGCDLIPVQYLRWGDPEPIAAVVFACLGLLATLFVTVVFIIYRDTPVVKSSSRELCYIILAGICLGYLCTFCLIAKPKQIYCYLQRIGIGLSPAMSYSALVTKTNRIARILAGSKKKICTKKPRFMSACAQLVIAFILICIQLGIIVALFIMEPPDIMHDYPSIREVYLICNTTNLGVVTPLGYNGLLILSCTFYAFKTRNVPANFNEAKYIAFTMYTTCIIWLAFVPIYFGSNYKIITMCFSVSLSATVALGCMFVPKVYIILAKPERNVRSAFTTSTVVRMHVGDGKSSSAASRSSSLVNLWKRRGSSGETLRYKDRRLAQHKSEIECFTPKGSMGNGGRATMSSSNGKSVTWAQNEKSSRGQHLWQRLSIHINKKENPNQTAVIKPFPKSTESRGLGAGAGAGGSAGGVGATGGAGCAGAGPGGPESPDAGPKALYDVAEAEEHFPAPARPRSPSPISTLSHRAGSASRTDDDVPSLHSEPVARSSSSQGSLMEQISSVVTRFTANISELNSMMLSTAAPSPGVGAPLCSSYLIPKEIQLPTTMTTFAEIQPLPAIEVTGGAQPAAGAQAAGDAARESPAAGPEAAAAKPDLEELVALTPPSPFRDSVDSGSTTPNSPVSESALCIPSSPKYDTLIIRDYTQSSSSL

SMILES | EC50
O=c1c2ccc(C#Cc3ccccn3)cc2nc2n1CCC1(CCCO1)CC2 (single isomer, unassigned) [Example 3.3a] | 30 to 100 nM
CC1(C)CCc2nc3cc(C#Cc4cnccc4F)ccc3c(=O)n2C1 [Example 2.90, 3-((4-fluoropyridin-3-yl)ethynyl)-8,8-dimethyl-8,9-dihydro-6H-pyrido[2,1-b]quinazolin-11(7H)-one] | < 10 nM
CC1Cc2nc3cc(C#Cc4ccccn4)cnc3c(=O)n2CCC1(F)F (single isomer, unassigned) [Example 3.31c] | 30 to 100 nM
O=c1c2ccc(C#Cc3ccccn3)cc2nc2n1CCC1(CO)CC21 (stereo not drawn) [Example 2.103, 1a-(hydroxymethyl)-8-(pyridin-2-ylethynyl)-1,2,3,10b-tetrahydrocyclopropa[3,4]pyrido [2,1-b]quinazolin-5(1aH)-one] | 100 to 300 nM
CC1Cn2c(nc3cc(C#Cc4ccccn4)ccc3c2=O)CO1 (single isomer, unassigned) [Example 2.4b] | < 10 nM
CCC1(F)CCc2nc3cc(C#Cc4ccccn4)ccc3c(=O)n2CC1 (stereo not drawn) [Example 3.17, 8-ethyl-8-fluoro-3-(pyridin-2-ylethynyl)-7,8,9,10-tetrahydroazepino[2,1-b]quinazolin-12(6H)-one] | 10 to 30 nM
CC1(C)CCc2nc3cc(C#Cc4cccc(C#N)n4)ccc3c(=O)n2C1 [Example 2.24b, 6-((8,8-dimethyl-11-oxo-7,8,9,11-tetrahydro-6H-pyrido[2,1-b]quinazolin-3-yl)ethynyl)picolinonitrile] | 10 to 30 nM
Cc1csc(/C=C/c2ccc3c(=O)n4c(nc3c2)CCC(C)(C)C4)n1 [Example 4.3, (E)-8,8-dimethyl-3-(2-(4-methylthiazol-2-yl)vinyl)-8,9-dihydro-6H-pyrido[2,1-b]quinazolin-11(7H)-one] | 10 to 30 nM
O=C(Nc1ccccn1)c1ccc2c(=O)n3c(nc2c1)CCC(F)(F)CC3 [Example 5.4, 8,8-difluoro-12-oxo-N-(pyridin-2-yl)-6,7,8,9,10,12-hexahydroazepino[2,1-b]quinazoline-3-carboxamide] | 300 to 1000 nM
Cc1cc(C#Cc2ccc3c(=O)n4c(nc3c2)CCC(C)(C)C4)ccn1 [Example 2.46, 8,8-dimethyl-3-((2-methylpyridin-4-yl)ethynyl)-8,9-dihydro-6H-pyrido[2,1-d]quinazolin-11(7H)-one] | 10 to 30 nM
CC1(C)CCc2nc3cc(NC(=O)Nc4ccccn4)ccc3c(=O)n2C1 [Example 6.12, 1-(8,8-dimethyl-11-oxo-7,8,9,11-tetrahydro-6H-pyrido[2,1-b]quinazolin-3-yl)-3-(pyridin-2-yl)urea] | 300 to 1000 nM
COCC1Cc2nc3cc(C#Cc4ccccn4)ccc3c(=O)n2C1 (single isomer, unassigned) [Example 1.1b] | 100 to 300 nM
CC1CCn2c(nc3cc(C#Cc4ccccn4)cnc3c2=O)C1 (single isomer, unassigned) [Example 2.17b] | 300 to 1000 nM
CCC1CCc2nc3cc(C#Cc4ccccn4)cnc3c(=O)n2CC1 (single isomer, unassigned) [Example 3.14a] | 30 to 100 nM
O=c1c2ccc(C#Cc3ccccn3)cc2nc2n1C[C@H]1CCCN21 (stereo in doubt) [Example 1.22] | 30 to 100 nM
CC1Cn2c(nc3cc(C#Cc4ccccn4)ccc3c2=O)CN1C (single isomer, unassigned) [Example 2.5a] | 30 to 100 nM
Cc1cc(C#Cc2ccc3c(=O)n4c(nc3c2)CCC(C)(C)C4)sn1 [Example 2.51, 8,8-dimethyl-3-((3-methylisothiazol-5-yl)ethynyl)-8,9-dihydro-6H-pyrido[2,1-b]quinazolin-11(7H)-one] | < 10 nM
COCCC1Cc2nc3cc(C#Cc4ccccn4)ccc3c(=O)n2C1 (stereo not drawn) [Example 1.5, 2-(2-methoxyethyl)-6-(pyridin-2-ylethynyl)-2,3-dihydropyrrolo[2,1-b]quinazolin-9(1H)-one] | 100 to 300 nM
CC(C)(O)C1Cc2nc3cc(C#Cc4ccccn4)ccc3c(=O)n2C1 (single isomer, unassigned) [Example 1.2b] | 300 to 1000 nM
Cc1cc(C#Cc2ccccn2)cc2nc3n(c(=O)c12)CCC(C)CC3 (stereo not drawn) [Example 3.22, 1,8-dimethyl-3-(pyridin-2-ylethynyl)-7,8,9,10-tetrahydroazepino[2,1-b]quinazolin-12(6H)-one] | 30 to 100 nM
COC1CCc2nc3cc(C#Cc4ccccn4)cnc3c(=O)n2CC1 (stereo not drawn) [Example 3.23, 8-methoxy-3-(pyridin-2-ylethynyl)-7,8,9,10-tetrahydropyrido[3′,2′:4,5]pyrimido [1,2-a]azepin-19(6H)-one] | 100 to 300 nM
CC1CCc2nc3cc(C#Cc4ccccn4)cnc3c(=O)n2C1 (single isomer, unassigned) [Example 2.16b] | 100 to 300 nM
O=c1c2ncc(C#Cc3ccccn3)cc2nc2n1CC(F)(F)CCC2 [Example 3.26, 9,9-difluoro-3-(pyridin-2-ylethynyl)-7,8,9,10-tetrahydropyrido[3′,2′:4,5]pyrimido [1,2-a]azepin-12(6H)-one] | 30 to 100 nM
O=c1c2ncc(C#Cc3ccccn3)cc2nc2n1CCC(C(F)(F)F)CC2 (single isomer, unassigned) [Example 3.9a] | 30 to 100 nM

SMILES | EC50
O=c1c2ccc(C#Cc3ccccn3)cc2nc2n1CCC(O)CC2 (single isomer, unassigned) [Example 3.2a] | 300 to 1000 nM
CC12CCCN1CCc1nc3cc(C#Cc4ccccn4)ccc3c(=O)n1C2 (stereo not drawn) [Example 3.34, 14a-methyl-9-(pyridin-2-ylethynyl)-2,3,5,6,14,14a-hexahydropyrrolo[2′,1′:3,4][1,4] diazepino[7,1-b]quinazolin-12(1H)-one] | 300 to 1000 nM
CC1(C)Cn2c(nc3cc(C#Cc4ccccn4)ccc3c2=O)C1F (single isomer, unassigned) [Example 1.11b] | 10 to 30 nM
CC1(C)CCc2nc3cc(C#Cc4ccc(F)cc4)ccc3c(=O)n2C1 [Example 2.75, 3-((4-fluorophenyl)ethynyl)-8,8-dimethyl-8,9-dihydro-6H-pyrido[2,1-b]quinazolin-11(7H)-one] | 10 to 30 nM
O=c1c2ncc(C#Cc3ccccn3)cc2nc2n1CCC(C(F)(F)F)C2 (stereo not drawn) [Example 2.21, 3-(pyridin-2-ylethynyl)-7-(trifluoromethyl)-8,9-dihydro-6H-dipyrido[1,2-a:3′,2′-d]pyrimidin-11(7H)-one] | 30 to 100 nM
CC1(C)Cc2nc3c(F)c(C#Cc4ccccn4)ccc3c(=O)n2C1 [Example 1.16, 5-fluoro-2,2-dimethyl-6-(pyridin-2-ylethynyl)-2,3-dihydropyrrolo[2,1-b]quinazolin-9(1H)-one] | < 10 nM
CC1(C)CCc2nc3cc(Nc4ccccn4)ccc3c(=O)n2C1 [Example 6.2, 8,8-dimethyl-3-(pyridin-2-ylamino)-8,9-dihydro-6H-pyrido[2,1-b]quinazolin-11(7H)-one] | 300 to 1000 nM
CCC1CCc2nc3cc(C#Cc4ccccn4)ccc3c(=O)n2CC1 (single isomer, unassigned) [Example 3.13a] | < 10 nM
O=c1c2ccc(C#Cc3ccccn3)cc2nc2n1CC1COCC1CC2 (single isomer, unassigned) [Example 3.2d] | 30 to 100 nM
CC1(C)Cc2nc3cc(C(=O)Nc4ccccn4)ccc3c(=O)n2C1 [Example 4.17, 2,2-dimethyl-9-oxo-N-(pyridin-2-yl)-1,2,3,9-tetrahydropyrrolo[2,1-b]quinazoline-6-carboxamide] | 300 to 1000 nM
O=c1c2ncc(C#Cc3ccccn3)cc2nc2n1CCCC(C(F)(F)F)C2 (stereo not drawn) [Example 3.8, 3-(pyridin-2-ylethynyl)-7-(trifluoromethyl)-7,8,9,10-tetrahydropyrido[3′,2′:4,5]pyrimido [1,2-a]azepin-12(6H)-one] | 30 to 100 nM
CC1CCCc2nc3cc(C#Cc4ccccn4)ccc3c(=O)n21 (single isomer, unassigned) [Example 2.3b] | < 10 nM
CCC1CCn2c(nc3cc(C#Cc4ccccn4)cnc3c2=O)C1 (single isomer, unassigned) [Example 2.22c] | 10 to 30 nM
CCC1CCc2nc3cc(C#Cc4ccccn4)ccc3c(=O)n2CC1 (single isomer, unassigned) [Example 3.13b] | 10 to 30 nM
CC1(C)CCc2nc3cc(OCc4ccccn4)ccc3c(=O)n2C1 [Example 4.5, 8,8-dimethyl-3-(pyridin-2-ylmethoxy)-8,9-dihydro-6H-pyrido[2,1-b]quinazolin-11(7H)-one] | 30 to 100 nM
CC1(C)CCC2Cn3c(nc4cc(C#Cc5ccccn5)ccc4c3=O)CN21 (stereo not drawn) [Example 2.26, 3,3-dimethyl-8-(pyridin-2-ylethynyl)-2,3,13,13a-tetrahydro-1H-pyrrolo[1′,2′:4,5] pyrazino[2,1-b]quinazolin-11(5H)-one] | 100 to 300 nM
CC1(C)Cn2c(nc3cc(C#Cc4ccccn4)ccc3c2=O)C1F (single isomer, unassigned) [Example 1.11a] | < 10 nM
CC1(C)CCc2nc3cc(C#Cc4ccccc4F)ccc3c(=O)n2C1 [Example 2.73, 3-((2-fluorophenyl)ethynyl)-8,8-dimethyl-8,9-dihydro-6H-pyrido[2,1-b]quinazolin-11(7H)-one] | 10 to 30 nM
O=c1c2ccc(C#Cc3ccccn3)cc2nc2n1CC(CF)C2 (single isomer, unassigned) [Example 1.9b] | 300 to 1000 nM
O=c1c2ccc(C#Cc3ccccn3)cc2nc2n1CC(C(F)(F)F)CC2 (single isomer, unassigned) [Example 2.14b] | < 10 nM
CC(C)(O)C1Cc2nc3cc(C#Cc4ccccn4)ccc3c(=O)n2C1 (single isomer, unassigned) [Example 1.2a] | 10 to 30 nM
CC1(C)CCn2c(nc3cc(C#Cc4cc(C#N)ccn4)ccc3c2=O)C1 [Example 2.25a, 2-((7,7-dimethyl-11-oxo-7,8,9,11-tetrahydro-6H-pyrido[2,1-b]quinazolin-3-yl)ethynyl)isonicotinonitrile] | 10 to 30 nM
CC1(C)CCc2nc3cc(C(=O)Cc4ccccn4)ccc3c(=O)n2C1 [Example 6.7, 8,8-dimethyl-3-(2-(pyridin-2-yl)acetyl)-8,9-dihydro-6H-pyrido[2,1-b]quinazolin-11(7H)-one] | 30 to 100 nM
O=c1c2ccc(C#Cc3ccccn3)cc2nc2n1CC1(COC1)C2 [Example 1.6, 6′-(pyridin-2-ylethynyl)-1′H-spiro[oxetane-3,2′-pyrrolo[2,1-b]quinazolin]-9′(3′H)-one] | 30 to 100 nM
